The record followed here is patent publication US7132012B2, “Phthalocyanine compound, ink, ink jet recording method and image forming method” (Fuji Photo Film Co., Ltd., priority 2004, dated 2006).

The data set can be described thus: Color toner image: light fastness property (xenon light). It is filed as physicochemical. Particulars: xenon light 85,000 lux, 5 days. On the procedure:
As for each of the phthalocyanine compounds of the invention (compounds 101, 102, 103 and 107), 3 parts by weight of the compound and 100 parts by weight of a resin for toner [styrene-acrylic acid ester copolymer; trade name HIMER TB-1000F (manufactured by Sanyo Chemical Industries, Ltd.)] were mixed and ground in a ball mill. Then, the mixture was heated to 150° C. to be molten and mixed. After cooling, the mixture was coarsely crushed using a hammer mill, and then, finely pulverized by a pulverizer of an air jet system. The resulting particles were further classified, and 1 to 20 micro was selected, resulting in a toner. To 10 parts of the toner, 900 parts of carrier iron powder (trade name EFV250/400; manufactured by Nippon Iron Powder) was uniformly mixed, resulting in a developer. Similarly, each sample of the comparative coloring agents shown in Table-7 were prepared in the same manner, except that the dye was used in an amount of 3 parts by weight, and the pigment was used in an amount of 6 parts by weight. By the use of these developers, copying was carried out by means of a dry ordinary paper electrophotographic copier [trade name NP-5000; manufactured by CANON, Corp.].
Reflected images (images on paper) and transmitted images (OHP images) were formed on paper and OHP sheets, respectively, with a developer using a color toner containing the compounds of the invention in accordance with the foregoing image forming method, and the evaluation tests were conducted in the following manner. Incidentally, the amount of the toner deposited was evaluated in the range of 0.7±0.05 (mg/cm^2).
The light fastness property was evaluated in the following manner. The image density Ci immediately after recording was measured, and thereafter, the image was irradiated with xenon light (85,000 lux) by means of a weather meter (Atlas C. 165), for 5 days. Then, the image density Cf was measured again, and the coloring matter residual ratio ([…]) was determined from the difference in image density between before and after xenon light irradiation. The image density was measured by means of a reflection densitometer (X-Rite 310TR). In Table-7, the case where the coloring matter residual ratio was 90% or more is indicated with ∘; less than 90 to 80%, Δ; and less than 80%, x.
As for `Cc1ccc(Nc2ccc(Nc3ccc(C)cc3)c3c2C(=O)c2c(Nc4ccc(C)cc4)ccc(Nc4ccc(C)cc4)c2C3=O)cc1` [Comparative dye 6], the Light fastness property result is reported as “Δ (less than 90 to 80%, Δ)”.
For C.I. Solvent Blue 38 the value was “∘ (the case where the coloring matter residual ratio was 90% or more is indicated with ∘)”.
Under `CNc1ccc(O)c2c1C(=O)c1c(O)ccc(NC)c1C2=O` [Comparative dye 5] stands “Δ (less than 90 to 80%, Δ)”; under C.I. Solvent Blue 70, “∘ (the case where the coloring matter residual ratio was 90% or more is indicated with ∘)”.
